Results as given in paper PMC10945556, “Design, Synthesis, and Antifungal Activity of 3-Substituted-2(5H)-Oxaboroles” (ACS Medicinal Chemistry Letters, 2024).
≈ marks a conversion by molar mass, not a printed value.

Tested on: C. albicans
Experiment: MIC, microbroth dilution
Format: cell-based, Candida albicans
Conditions: Candida albicans

SMILES | MIC [µg/mL]
OB1OCC=C1c1ccc(F)cc1 [Compound 6b] | > 50
OB1OCC=C1c1ccc(Cl)cc1 [Compound 6e] | > 50
OB1OCC=C1c1ccc(Br)cc1 [Compound 6h] | > 50
OB1OCC=C1c1cccc(Br)c1 [Compound 6i] | > 50
OB1OCC=C1c1ccc2ccccc2c1 [Compound 6q] | > 50

Same assay, conditions: Candida albicans, value in parentheses

SMILES | MIC [µM]
OB1OCC=C1c1ccc(F)cc1 [Compound 6b] | > 281
OB1OCC=C1c1ccc(Cl)cc1 [Compound 6e] | > 258
OB1OCC=C1c1ccc(Br)cc1 [Compound 6h] | > 210
OB1OCC=C1c1cccc(Br)c1 [Compound 6i] | > 210
OB1OCC=C1c1ccc2ccccc2c1 [Compound 6q] | > 238

Tested on: B. cereus
Experiment: MIC, microbroth dilution
Format: cell-based, Bacillus cereus
Conditions: Bacillus cereus

SMILES | MIC [µg/mL]
OB1OCC=C1c1ccc(F)cc1 [Compound 6b] | > 50
OB1OCC=C1c1ccc(Cl)cc1 [Compound 6e] | > 50
OB1OCC=C1c1ccc(Br)cc1 [Compound 6h] | > 50
OB1OCC=C1c1cccc(Br)c1 [Compound 6i] | > 50
OB1OCC=C1c1ccc2ccccc2c1 [Compound 6q] | > 50

Same assay, conditions: Bacillus cereus, value in parentheses

SMILES | MIC [µM]
OB1OCC=C1c1ccc(F)cc1 [Compound 6b] | > 281
OB1OCC=C1c1ccc(Cl)cc1 [Compound 6e] | > 258
OB1OCC=C1c1ccc(Br)cc1 [Compound 6h] | > 210
OB1OCC=C1c1cccc(Br)c1 [Compound 6i] | > 210
OB1OCC=C1c1ccc2ccccc2c1 [Compound 6q] | > 238

Tested on: T. mentagrophytes
Experiment: MIC, dose-dependent solid media assay
Format: cell-based, Trichophyton mentagrophytes
Conditions: Trichophyton mentagrophytes

SMILES | MIC [µg/mL]
OB1OCC=C1c1ccc(F)cc1 [Compound 6b] | > 50
OB1OCC=C1c1ccc(Cl)cc1 [Compound 6e] | 50
OB1OCC=C1c1ccc(Br)cc1 [Compound 6h] | 33 ± 8
OB1OCC=C1c1cccc(Br)c1 [Compound 6i] | 25
OB1OCC=C1c1ccc2ccccc2c1 [Compound 6q] | > 50

Same assay, conditions: Trichophyton mentagrophytes, value in parentheses

SMILES | MIC [µM]
OB1OCC=C1c1ccc(F)cc1 [Compound 6b] | > 281
OB1OCC=C1c1ccc(Cl)cc1 [Compound 6e] | 258
OB1OCC=C1c1ccc(Br)cc1 [Compound 6h] | 139
OB1OCC=C1c1cccc(Br)c1 [Compound 6i] | 105
OB1OCC=C1c1ccc2ccccc2c1 [Compound 6q] | > 238

Tested on: A. flavus
Experiment: MIC, dose-dependent solid media assay
Format: cell-based, Aspergillus flavus
Conditions: Aspergillus flavus

SMILES | MIC [µg/mL]
OB1OCC=C1c1ccc(F)cc1 [Compound 6b] | > 50
OB1OCC=C1c1ccc(Cl)cc1 [Compound 6e] | 50
OB1OCC=C1c1ccc(Br)cc1 [Compound 6h] | 33 ± 8
OB1OCC=C1c1cccc(Br)c1 [Compound 6i] | 25
OB1OCC=C1c1ccc2ccccc2c1 [Compound 6q] | > 50

Same assay, conditions: Aspergillus flavus, value in parentheses

SMILES | MIC [µM]
OB1OCC=C1c1ccc(F)cc1 [Compound 6b] | > 281
OB1OCC=C1c1ccc(Cl)cc1 [Compound 6e] | 258
OB1OCC=C1c1ccc(Br)cc1 [Compound 6h] | 139
OB1OCC=C1c1cccc(Br)c1 [Compound 6i] | 105
OB1OCC=C1c1ccc2ccccc2c1 [Compound 6q] | > 238

Tested on: S. cerevisiae
Experiment: MIC, microbroth dilution
Format: cell-based, Saccharomyces cerevisiae
Conditions: Saccharomyces cerevisiae

SMILES | MIC [µg/mL]
OB1OCC=C1c1ccc(F)cc1 [Compound 6b] | 10.4 ± 2
OB1OCC=C1c1ccc(Cl)cc1 [Compound 6e] | 5.2 ± 1
OB1OCC=C1c1ccc(Br)cc1 [Compound 6h] | 12.5
OB1OCC=C1c1cccc(Br)c1 [Compound 6i] | 50
OB1OCC=C1c1ccc2ccccc2c1 [Compound 6q] | > 50

Same assay, conditions: Saccharomyces cerevisiae, value in parentheses

SMILES | MIC [µM]
OB1OCC=C1c1ccc(F)cc1 [Compound 6b] | 58.4
OB1OCC=C1c1ccc(Cl)cc1 [Compound 6e] | 26.8
OB1OCC=C1c1ccc(Br)cc1 [Compound 6h] | 52.5
OB1OCC=C1c1cccc(Br)c1 [Compound 6i] | 210
OB1OCC=C1c1ccc2ccccc2c1 [Compound 6q] | > 238

Tested on: P. aeruginosa
Experiment: MIC, microbroth dilution
Format: cell-based, Pseudomonas aeruginosa
Conditions: Pseudomonas aeruginosa

SMILES | MIC [µg/mL]
OB1OCC=C1c1ccc(F)cc1 [Compound 6b] | > 50
OB1OCC=C1c1ccc(Cl)cc1 [Compound 6e] | > 50
OB1OCC=C1c1ccc(Br)cc1 [Compound 6h] | > 50
OB1OCC=C1c1cccc(Br)c1 [Compound 6i] | > 50
OB1OCC=C1c1ccc2ccccc2c1 [Compound 6q] | > 50

Same assay, conditions: Pseudomonas aeruginosa, value in parentheses

SMILES | MIC [µM]
OB1OCC=C1c1ccc(F)cc1 [Compound 6b] | > 281
OB1OCC=C1c1ccc(Cl)cc1 [Compound 6e] | > 258
OB1OCC=C1c1ccc(Br)cc1 [Compound 6h] | > 210
OB1OCC=C1c1cccc(Br)c1 [Compound 6i] | > 210
OB1OCC=C1c1ccc2ccccc2c1 [Compound 6q] | > 238

Tested on: Methicillin resistant Staphylococcus aureus
Experiment: MIC, microbroth dilution
Format: cell-based
Conditions: Staphylococcus aureus, S. aureus (MRSA)

SMILES | MIC [µg/mL]
OB1OCC=C1c1ccc(F)cc1 [Compound 6b] | > 50
OB1OCC=C1c1ccc(Cl)cc1 [Compound 6e] | > 50
OB1OCC=C1c1ccc(Br)cc1 [Compound 6h] | > 50
OB1OCC=C1c1cccc(Br)c1 [Compound 6i] | > 50
OB1OCC=C1c1ccc2ccccc2c1 [Compound 6q] | > 50

Same assay, conditions: Staphylococcus aureus, S. aureus (MRSA), value in parentheses

SMILES | MIC [µM]
OB1OCC=C1c1ccc(F)cc1 [Compound 6b] | > 281
OB1OCC=C1c1ccc(Cl)cc1 [Compound 6e] | > 258
OB1OCC=C1c1ccc(Br)cc1 [Compound 6h] | > 210
OB1OCC=C1c1cccc(Br)c1 [Compound 6i] | > 210
OB1OCC=C1c1ccc2ccccc2c1 [Compound 6q] | > 238

Tested on: rat myoblast cells (H9c2)
Experiment: Cell viability assay against H9c2 cell line
Format: cell-based
Conditions: concentrations up to 100 μM, 24 h
Method: (§1) In general, very little growth inhibition was observed against either Gram-positive or Gram-negative bacterial pathogens. […] The SAR for the antibacterial is dissimilar to that observed for the antifungal properties.
(§2) Figure 3 (A) Cell viability assay against H9c2 cell line at 100 μM for 24 h (normalized to PBS no treatment), (B) Hemolytic assay at 50 and 100 μM for 1 h (normalized to triton X-100 positive control). Error bars in both graphs represent standard error of mean (SEM) of replicates (n = 3).

SMILES | cytotoxic effects against rat myoblast cells (H9c2)
OB1OCC=C1c1ccc(Br)cc1 [Compound 6h] | none
OB1OCC=C1c1cccc(Br)c1 [Compound 6i] | none
OB1OCC=C1c1ccc2ccccc2c1 [Compound 6q] | none

Tested on: E. coli
Experiment: MIC, microbroth dilution
Format: cell-based, Escherichia coli
Conditions: not given

SMILES | MIC EC [µg/mL]
OB1OCC=C1c1ccc(Cl)cc1 [Compound 6e] | 25 ± 0 (≈ 129 µM)
OB1OCC=C1c1ccc(Br)cc1 [Compound 6h] | 21 ± 4 (≈ 87.9 µM)

Same assay, conditions: Escherichia coli

SMILES | MIC [µg/mL]
OB1OCC=C1c1ccc(Cl)cc1 [Compound 6e] | 20 to 50
OB1OCC=C1c1ccc(Br)cc1 [Compound 6h] | 20 to 50
OB1OCC=C1c1cccc(Br)c1 [Compound 6i] | > 50
OB1OCC=C1c1ccc2ccccc2c1 [Compound 6q] | > 50

Same assay, conditions: Escherichia coli, value in parentheses

SMILES | MIC [µM]
OB1OCC=C1c1ccc(F)cc1 [Compound 6b] | 236
OB1OCC=C1c1ccc(Cl)cc1 [Compound 6e] | 129
OB1OCC=C1c1ccc(Br)cc1 [Compound 6h] | 88.2
OB1OCC=C1c1cccc(Br)c1 [Compound 6i] | > 210
OB1OCC=C1c1ccc2ccccc2c1 [Compound 6q] | > 238

Tested on: E. coli
Experiment: Growth inhibition screen in liquid medium
Format: cell-based, Escherichia coli
Conditions: screen at 50 and 12.5 μg/mL
Excerpt: These included four bacterial pathogens [Bacillus cereus (Gram-positive), Methicillin resistant Staphylococcus aureus (Gram-positive), Pseudomonas aeruginosa (Gram-negative), and Escherichia coli (Gram-negative)], a fungal pathogen (Candida albicans), and a yeast (Saccharomyces cerevisiae). […] Commercially available tavaborole, cycloheximide, and nystatin were also screened as benchmarks. […] In addition, the 3-substituted oxaboroles were screened in a dose-dependent manner on solid media against three spore-forming fungal pathogens: Trichophyton mentagrophytes, Penicillium chrysogenum, and Aspergillus flavus (Figures 2B and S152–S192). The compounds could not be screened for growth inhibition in liquid media against these pathogens due to clumping of the mycelia, which impeded the absorbance readings.

SMILES | growth inhibition of E. coli
OB1OCC=C1c1ccc(F)cc1 [Compound 6b] | inhibited the growth
OB1OCC=C1c1ccc(Cl)cc1 [Compound 6e] | inhibited the growth
OB1OCC=C1c1ccc(Br)cc1 [Compound 6h] | inhibited the growth

Tested on: not listed separately
Experiment: Hemolytic assay
Format: cell-based
Conditions: 50 and 100 μM for 1 h
Method: as §1, §2

SMILES | hemolytic activity
OB1OCC=C1c1ccc(Br)cc1 [Compound 6h] | none possessed hemolytic activity
OB1OCC=C1c1cccc(Br)c1 [Compound 6i] | none possessed hemolytic activity
OB1OCC=C1c1ccc2ccccc2c1 [Compound 6q] | none possessed hemolytic activity

Tested on: P. chrysogenum
Experiment: MIC, dose-dependent solid media assay
Format: cell-based, Penicillium chrysogenum
Conditions: Penicillium chrysogenum

SMILES | MIC [µg/mL]
OB1OCC=C1c1ccc(F)cc1 [Compound 6b] | 25
OB1OCC=C1c1ccc(Cl)cc1 [Compound 6e] | 12.5
OB1OCC=C1c1ccc(Br)cc1 [Compound 6h] | 12.5
OB1OCC=C1c1cccc(Br)c1 [Compound 6i] | 10.4 ± 2
OB1OCC=C1c1ccc2ccccc2c1 [Compound 6q] | 12.5

Same assay, conditions: Penicillium chrysogenum, value in parentheses

SMILES | MIC [µM]
OB1OCC=C1c1ccc(F)cc1 [Compound 6b] | 140
OB1OCC=C1c1ccc(Cl)cc1 [Compound 6e] | 64.4
OB1OCC=C1c1ccc(Br)cc1 [Compound 6h] | 52.5
OB1OCC=C1c1cccc(Br)c1 [Compound 6i] | 43.7
OB1OCC=C1c1ccc2ccccc2c1 [Compound 6q] | 59.5
